IC50 data for 22 compounds are collected here from patent US8648066B2 (Exelixis, Inc., priority 2009, dated 2014).

For one assay, the target named is mTOR/GbL/Raptor (mTORC1) (Homo sapiens, UniProt P42345). Kind of assay: mTOR/GbL/Raptor (mTORC1) ELISA assay. Type of assay: biochemical. Particulars: phosphorylation of 4E-BP1; 0.2 nM mTORC1, 10 μM ATP; read-out: IC50 in this assay (mTORC1 ELISA). In outline: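 ELISA read-out: phospho-4E-BP1 captured on Ni-chelate plates and detected with anti-phospho antibody plus HRP-anti-IgG luminescence. The kinase step ran 120 min at ambient temperature with 0.2 nM human mTORC1, 10 µM ATP, 50 nM His-4E-BP1, 10 mM MnCl2, pH 7.2 HEPES.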

In another assay the target is PI3Kα (Homo sapiens, UniProt P42336). Kind of assay: PI3K biochemical assay (luciferase-luciferin ATP consumption). The note with it: 1.5 nM enzyme, 1 μM ATP, 10 μM PIP2; read-out: IC50 for PI3Kα in this assay. The protocol:
PI3Kα activity is measured as the percent of ATP consumed following the kinase reaction using luciferase-luciferin-coupled chemiluminescence. Reactions were conducted in 384-well white, medium binding microtiter plates (Greiner). Kinase reactions were initiated by combining test compounds, ATP, substrate (PIP2), and kinase in a 20 μL volume in a buffer solution. The standard PI3Kalpha assay buffer is composed 50 mM Tris, pH 7.5, 1 mM EGTA, 10 mM MgCl2, 1 mM DTT and 0.03% CHAPS. The standard assay concentrations for enzyme, ATP, and substrate are 1.5 nM, 1 μM, and 10 μM, respectively. The reaction mixture was incubated at ambient temperature for approximately 2 h. Following the kinase reaction, a 10 μL aliquot of luciferase-luciferin mix (Promega Kinase-Glo) was added and the chemiluminescence signal measured using a Victor2 plate reader (Perkin Elmer). Total ATP consumption was limited to 40-60% and IC50 values of control compounds correlate well with literature references. Substituting PI3Kα with PI3Kβ, PI3Kγ, or PI3Kδ, the inhibitory activity of the compounds for the other isoforms of I3K were measured.

As a reminder, the IC50 is the point on the concentration scale where inhibition reaches its midpoint.

PI3Kα, sequence (P42336 whole entry, species assumed): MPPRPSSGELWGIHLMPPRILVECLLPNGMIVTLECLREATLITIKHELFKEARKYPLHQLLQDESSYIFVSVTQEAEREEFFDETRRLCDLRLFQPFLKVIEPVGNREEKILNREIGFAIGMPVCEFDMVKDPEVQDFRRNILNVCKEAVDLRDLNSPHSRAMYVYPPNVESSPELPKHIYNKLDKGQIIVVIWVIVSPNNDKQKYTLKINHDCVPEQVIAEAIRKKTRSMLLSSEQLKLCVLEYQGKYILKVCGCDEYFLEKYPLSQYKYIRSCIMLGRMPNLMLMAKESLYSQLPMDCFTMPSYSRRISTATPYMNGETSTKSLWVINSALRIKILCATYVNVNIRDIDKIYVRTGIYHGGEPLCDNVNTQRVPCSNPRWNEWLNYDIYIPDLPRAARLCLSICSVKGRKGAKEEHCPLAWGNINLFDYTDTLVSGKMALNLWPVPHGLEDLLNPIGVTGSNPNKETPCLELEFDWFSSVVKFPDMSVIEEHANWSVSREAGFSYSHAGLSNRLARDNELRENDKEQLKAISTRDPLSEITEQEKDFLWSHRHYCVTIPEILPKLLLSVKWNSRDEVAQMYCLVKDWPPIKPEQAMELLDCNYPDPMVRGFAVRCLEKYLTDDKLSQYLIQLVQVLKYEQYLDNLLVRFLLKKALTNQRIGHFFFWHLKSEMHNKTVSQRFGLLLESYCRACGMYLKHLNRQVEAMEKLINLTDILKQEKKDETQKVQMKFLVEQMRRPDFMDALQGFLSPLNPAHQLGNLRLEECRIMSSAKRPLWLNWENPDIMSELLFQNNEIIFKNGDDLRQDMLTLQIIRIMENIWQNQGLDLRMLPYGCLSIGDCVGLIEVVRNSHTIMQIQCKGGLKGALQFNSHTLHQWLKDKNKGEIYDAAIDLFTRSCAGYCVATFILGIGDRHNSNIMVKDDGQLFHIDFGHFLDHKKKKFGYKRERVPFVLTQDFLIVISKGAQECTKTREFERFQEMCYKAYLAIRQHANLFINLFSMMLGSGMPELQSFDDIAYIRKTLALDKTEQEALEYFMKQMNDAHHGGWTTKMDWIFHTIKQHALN
PI3Kα, sequence (P27986 whole entry partner, species assumed): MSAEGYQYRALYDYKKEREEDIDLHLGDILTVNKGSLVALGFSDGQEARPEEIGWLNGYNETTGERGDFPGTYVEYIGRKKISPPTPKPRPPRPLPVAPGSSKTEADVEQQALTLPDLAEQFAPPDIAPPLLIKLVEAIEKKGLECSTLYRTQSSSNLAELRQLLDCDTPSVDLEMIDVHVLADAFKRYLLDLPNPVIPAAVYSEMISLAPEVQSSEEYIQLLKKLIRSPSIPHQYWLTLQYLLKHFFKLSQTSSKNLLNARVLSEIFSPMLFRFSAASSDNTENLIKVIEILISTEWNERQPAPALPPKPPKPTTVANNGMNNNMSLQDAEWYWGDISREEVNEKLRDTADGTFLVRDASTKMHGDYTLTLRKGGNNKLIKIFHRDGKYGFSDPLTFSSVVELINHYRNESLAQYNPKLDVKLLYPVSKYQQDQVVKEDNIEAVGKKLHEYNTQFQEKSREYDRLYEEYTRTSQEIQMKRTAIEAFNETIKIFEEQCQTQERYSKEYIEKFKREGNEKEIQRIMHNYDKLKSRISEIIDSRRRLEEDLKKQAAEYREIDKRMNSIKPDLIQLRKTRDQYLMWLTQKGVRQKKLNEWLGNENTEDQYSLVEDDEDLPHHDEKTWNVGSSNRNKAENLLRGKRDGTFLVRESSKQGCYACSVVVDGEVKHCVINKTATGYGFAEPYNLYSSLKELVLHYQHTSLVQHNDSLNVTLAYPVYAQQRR

Consider `c1ccc2c(N3CCOc4ccc(-c5ccsc5)cc4C3)ccnc2c1` [Example 204, 4-quinolin-4-yl-7-(3-thienyl)-2,3,4,5-tetrahydro-1,4-benzoxazepine], for which the IC50 on mTOR/GbL/Raptor (mTORC1) is not below 2000 nM; at PI3Kα, 1000 to 2000 nM.
For `COCCOC(=O)Nc1nc2ccc(-c3ccc4c(c3)CN(c3ccnc5ccccc35)CCO4)cc2[nH]1` [Example 118, 2-(methyloxy)ethyl [6-(4-quinolin-4-yl-2,3,4,5-tetrahydro-1,4-benzoxazepin-7-yl)-1H-benzimidazol-2-yl]carbamate], on PI3Kα, the IC50 was 1000 to 2000 nM.
Same read-out and setting: for `CNC(=O)c1cccc(-c2ccc3c(c2)CN(c2nc(C)nc4cc(OC)ccc24)CCO3)c1` [Example 644, N-methyl-3-{4-[2-methyl-7-(methyloxy)quinazolin-4-yl]-2,3,4,5-tetrahydro-1,4-benzoxazepin-7-yl}benzamide] the value was not below 2000 nM; for `CC[C@H]1CCc2c(nc(C)nc2N2CCOc3ccc(-c4cnc5nc([C@H](C)NC(=O)OCc6ccccc6)[nH]c5c4)cc3C2)C1` [Example 646, phenylmethyl [(1S)-1-(6-{4-[(7S)-7-ethyl-2-methyl-5,6,7,8-tetrahydroquinazolin-4-yl]-2,3,4,5-tetrahydro-1,4-benzoxazepin-7-yl}-1H-imidazo[4,5-b]pyridin-2-yl)ethyl]carbamate], 1000 to 2000 nM; for `Cn1ncc2cc(-c3ccc4c(c3)CN(c3ccnc5ccccc35)CCO4)ccc21` [Example 139, 7-(1-methyl-1H-indazol-5-yl)-4-quinolin-4-yl-2,3,4,5-tetrahydro-1,4-benzoxazepine], 1000 to 2000 nM.
For `CC1(C)CCc2ncnc(N3CCOc4ccc(-c5cnc(N)c(S(=O)(=O)O)c5)cc4C3)c2C1` [Example 400, 2-amino-5-[4-(6,6-dimethyl-5,6,7,8-tetrahydrquinazolin-4-yl)-2,3,4,5-tetrahydro-1,4-benzoxazepin-7-yl]pyridine-3-sulfonic acid], the IC50 on mTOR/GbL/Raptor (mTORC1) lay within 50 to 250 nM.
Same read-out and setting: for `COc1ccc2c(N3CCOc4ccc(-c5ccc6nc[nH]c6c5)cc4C3)nc(C)nc2c1` [Example 280, 7-(1H-benzimidazol-6-yl)-4-[2-methyl-7-(methyloxy)quinoazolin-4-yl]-2,3,4,5-tetrahydro-1,4-benzoxazepine] the value was 250 to 1000 nM; for `CCNCc1nc2c(c(N3CCOc4ccc(-c5cnc6nc(C)[nH]c6c5)cc4C3)n1)CC(C)(C)CC2` [Example 600, N-({6,6-dimethyl-4-[7-(2-methyl-1H-imidazo[4,5-b]pyridin-6-yl)-2,3-dihydro-1,4-benzoxazepin-4(5H)-yl]-5,6,7,8-tetrahydroquinazolin-2-yl}methyl)ethanamine], not above 10 nM.
Take `CCNc1nc2ccc(-c3ccc4c(c3)CN(c3ncnc5c3CC(C)(C)CC5)CCO4)cc2[nH]1` [Example 255, 6-[4-(6,6-dimethyl-5,6,7,8-tetrahydroquinazolin-4-yl)-2,3,4,5-tetrahydro-1,4-benzoxazepin-7-yl]-N-ethyl-1H-benzimidazol-2-amine]: the IC50 at mTOR/GbL/Raptor (mTORC1) is not above 10 nM.
Take `CCNc1nc2ccc(-c3ccc4c(c3)CN(c3cc(C)nc5ccccc35)CCO4)cc2[nH]1` [Example 246, N-ethyl-6-[4-(2-methylquinolin-4-yl)-2,3,4,5-tetrahydro-1,4-benzoxazepin-7-yl]-1H-benzimidazol-2-amine]: the IC50 on mTOR/GbL/Raptor (mTORC1) is 50 to 250 nM.
The same measure, in the same setting: the same measure for `COc1ccc2c(N3CCOc4ccc(-c5cnc6nc(C)[nH]c6c5)cc4C3)ncnc2c1` [Example 565, 7-(2-methyl-1H-imidazo[4,5-b]pyridin-6-yl)-4-[7-(methyloxy)quinazolin-4-yl]-2,3,4,5-tetrahydro-1,4-benzoxazepine]: 50 to 250 nM; for `Cc1nc2ncc(-c3ccc4c(c3)CN(c3nc(CN(C)C5CC5)nc5c3CC(C)(C)CC5)CCO4)cc2[nH]1` [Example 604, N-({6,6-dimethyl-4-[7-(2-methyl-1H-imidazo[4,5-b]pyridin-6-yl)-2,3-dihydro-1,4-benzoxazepin-4(5H)-yl]-5,6,7,8-tetrahydroquinazolin-2-yl}methyl)-N-methylcyclopropanamaine]: 10 to 50 nM.
The same measure, in the same setting: for `Cc1nc2ccc(-c3ccc4c(c3)CN(c3ncnc5c3CC(C)(C)CC5)CCO4)cc2[nH]1` [Example 65, 4-(6,6-dimethyl-5,6,7,8-tetrahydroquinazolin-4-yl)-7-(2-methyl-1H-benzimidazol-6-yl)-2,3,4,5-tetrahydro-1,4-benzoxazepine] the value was not above 10 nM; for `Cn1c(N)nc2cc(-c3ccc4c(c3)CN(c3ccnc5ccccc35)CCO4)ccc21` [Example 116, 1-methyl-5-(4-quinolin-4-yl-2,3,4,5-tetrahydro-1,4-benzoxazepin-7-yl)-1H-benzimidazol-2-amine], 1000 to 2000 nM; for `Cc1nc(Nc2ccccc2)c(C)c(N2CCOc3ccc(-c4cnc5nc[nH]c5c4)cc3C2)n1` [Example 530], 10 to 50 nM.
In the case of `Cc1ncnc(N2CCOc3ccc(-c4ccc5nc(N)ncc5c4)cc3C2)c1Cc1ccc(F)cc1` [Example 143, 6-(4-{5-[(4-fluorophenyl)methyl]-6-methylpyrimidin-4-yl}-2,3,4,5-tetrahydro-1,4-benzoxazepin-7-yl)quinazolin-2-amine], on mTOR/GbL/Raptor (mTORC1), the IC50 was 10 to 50 nM.
For the compound `Cc1nc(N)sc1-c1ccc2c(c1)CN(c1ncnc(C)c1Cc1ccc(F)cc1)CCO2` [Example 154, 5-(4-{5-[(4-fluorophenyl)methyl]-6-methylpyrimidin-4-yl}-2,3,4,5-tetrahydro-1,4-benzoxazepin-7-yl)-4-methyl-1,3-thiazol-2-amine], the IC50 at mTOR/GbL/Raptor (mTORC1) is 50 to 250 nM.
The same measure, in the same setting: the same measure for `CC1=CC(C)(C)Cc2c1ncnc2N1CCOc2ccc(-c3cnc(N)c(S(=O)(=O)N4CC[C@@H](N)C4)c3)cc2C1` [Example 448, 3-{[(3R)-3-aminopyrrolidin-1-yl]sulfonyl}-5-[4-(6,6,8-trimethyl-5,6-dihydroquinazolin-4-yl)-2,3,4,5-tetrahydro-1,4-benzoxazepin-7-yl]pyridin-2-amine]: not above 10 nM; for `COc1ccc(-c2ccc3c(c2)CN(c2nc(CN(C)C)nc4c2CC(C)(C)CC4)CCO3)cc1Cl` [Example 324, 1-(4-{7-[3-chloro-4-(methyloxy)phenyl]-2,3-dihydro-1,4-benzoxazepin-4(5H)-yl}-6,6-dimethyl-5,6,7,8-tetrahydroquinazolin-2-yl)-N,N-dimethylmethanamine]: 250 to 1000 nM; for `Cc1nc2ccc(-c3ccc4c(c3)CN(c3cc(C(C)C)ncn3)CCO4)cc2[nH]1` [Example 59, 7-(2-methyl-1H-benzimidazol-6-yl)-4-[6-(1-methylethyl)pyrimidin-4-yl]-2,3,4,5-tetrahydro-1,4-benzoxazepine]: 50 to 250 nM.
As for `CC1(C)CCc2nc(CO)nc(N3CCOc4ccc(-c5cnc6sc(N)nc6c5)cc4C3)c2C1` [Example 308, {4-[7-(2-amino[1,3]thiazolo[5,4-b]pyridin-6-yl)-2,3-dihydro-1,4-benzoxazepin-4(5H)-yl]-6,6-dimethyl-5,6,7,8-tetrahydroquinazolin-2-yl}methanol], the IC50 at mTOR/GbL/Raptor (mTORC1) was not above 10 nM.
For the compound `CC(C)(N)CNS(=O)(=O)c1cc(-c2ccc3c(c2)CN(c2ncnc4c2CC(C)(C)CC4)CCO3)cnc1N` [Example 406, 2-amino-N-(2-amino-2-methylpropyl)-5-[4-(6,6-dimethyl-5,6,7,8-tetrahydroquinazolin-4-yl)-2,3,4,5-tetrahydro-1,4-benzoxazepin-7-yl]pyridine-3-sulfonamide], the IC50 at mTOR/GbL/Raptor (mTORC1) was not above 10 nM.
